Test results reported in patent US9464076B2, “Benzothiophene derivative” (Daiichi Sankyo Company, Limited, priority 2013, dated 2016).
Structures can show the parent of a compound that is named as a salt.

Biological target: PDE10A (Homo sapiens (Human), UniProt Q9Y233)
Test: Measurement of PDE10A inhibitory activity-2 (PDE10A fraction prepared from MOLT-4 cells)
Format: biochemical
Conditions: PDE10A fraction from MOLT-4 cells (peak around 250 mM NaCl)
Experimental: A human acute lymphoblastic lymphoma T cell line MOLT-4 (which can be purchased under ATCC No. CRL-1582 from ATCC) was cultured in an RPMI1640 medium containing 10% fetal bovine serum to obtain 5×10^8 MOLT-4 cells. The cells were recovered by centrifugation and suspended in 10 ml of buffer solution A (25 mM Tris-HCl, 5 mM 2-mercaptoethanol, 2 mM benzamidine, 2 mM EDTA, and 0.1 mM 4-(2-aminoethyl)benzenesulfonyl hydrochloride, pH 7.5). The cells were homogenized using a Polytron homogenizer and centrifuged (4° C., 25,000 g, 10 minutes). Then, the supernatant was further ultracentrifuged (4° C., 100,000 g, 60 minutes). The obtained supernatant was filtered through a 0.2 μm filter to obtain a soluble fraction.
HiTrap Q HP column (5 ml×2, GE Healthcare Japan Corp.) equilibrated with buffer solution A was charged with the obtained soluble fraction. Phosphodiesterase was eluted with 300 ml of buffer solution A containing a linear gradient solution of 0 to 0.8 M NaCl to recover sixty 5-ml fractions. Each fraction was tested for cAMP-metabolizing phosphodiesterase activity.
On the other hand, total RNA was prepared from Jurkat cells, one type of human T cell, and similarly subjected to RT-PCR. […] Eur J Biochem. 1999, 266 (3), 1118-2 has reported that PDE10A from the rat striatum and testis is eluted as an active peak centered around 250 mM NaCl.
For these reasons, this fraction was used as a solution for the evaluation of PDE10A inhibitory activity. The obtained solution was used to calculate the inhibitory activity (IC50) of a test compound in the same way as in the aforementioned test.

Chain of PDE10A (Q9Y233 whole entry): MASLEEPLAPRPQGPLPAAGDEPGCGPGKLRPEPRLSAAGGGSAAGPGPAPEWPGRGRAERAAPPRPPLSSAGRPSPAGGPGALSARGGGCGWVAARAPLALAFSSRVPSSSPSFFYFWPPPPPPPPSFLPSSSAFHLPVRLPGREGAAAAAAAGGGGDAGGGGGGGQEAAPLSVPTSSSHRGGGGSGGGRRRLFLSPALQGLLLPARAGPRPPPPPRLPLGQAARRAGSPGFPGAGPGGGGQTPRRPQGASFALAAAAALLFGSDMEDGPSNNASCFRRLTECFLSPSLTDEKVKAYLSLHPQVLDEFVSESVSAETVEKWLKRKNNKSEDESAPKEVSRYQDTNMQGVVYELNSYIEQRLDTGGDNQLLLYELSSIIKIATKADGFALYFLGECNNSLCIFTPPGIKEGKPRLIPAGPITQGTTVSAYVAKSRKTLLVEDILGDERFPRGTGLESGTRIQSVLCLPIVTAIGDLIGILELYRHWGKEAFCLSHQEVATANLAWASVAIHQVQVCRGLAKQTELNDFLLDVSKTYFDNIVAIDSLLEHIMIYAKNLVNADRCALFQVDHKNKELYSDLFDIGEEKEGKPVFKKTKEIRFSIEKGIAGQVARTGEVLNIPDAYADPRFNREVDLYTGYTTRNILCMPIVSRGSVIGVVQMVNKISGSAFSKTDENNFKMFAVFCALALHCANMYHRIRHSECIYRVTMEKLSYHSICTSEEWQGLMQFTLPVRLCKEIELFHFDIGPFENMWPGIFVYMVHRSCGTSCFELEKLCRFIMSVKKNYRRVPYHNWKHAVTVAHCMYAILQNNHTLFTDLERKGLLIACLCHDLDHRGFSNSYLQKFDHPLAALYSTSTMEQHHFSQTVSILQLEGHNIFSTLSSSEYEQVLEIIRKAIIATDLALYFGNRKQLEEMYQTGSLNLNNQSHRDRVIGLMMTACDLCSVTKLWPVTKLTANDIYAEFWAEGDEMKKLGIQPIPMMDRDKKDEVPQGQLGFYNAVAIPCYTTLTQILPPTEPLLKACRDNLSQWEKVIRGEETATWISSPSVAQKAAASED

IC50 [nM]	SMILES
2	COCc1ccc(C(C)=O)c2sc(C(=O)Nc3ccc4c(COC(F)F)cccc4n3)c(C)c12 [Example 73, 7-Acetyl-N-(5-((difluoromethoxy)methyl)quinolin-2-yl)-4-(methoxymethyl)-3-methylbenzo[b]thiophene-2-carboxamide hydrochloride]
1.6	CC(=O)c1ccc(C(C)=O)c2c(C)c(C(=O)Nc3ccc4ccccc4n3)sc12 [Example 1, 4,7-Diacetyl-3-methyl-N-(quinolin-2-yl)benzo[b]thiophene-2-carboxamide]
0.74	COCc1ccc(C(C)=O)c2sc(C(=O)Nc3ccc4c(COC(=O)[C@@H](N)CO)cccc4n3)c(C)c12 [Example 91, (S)-(2-(7-Acetyl-4-(methoxymethyl)-3-methylbenzo[b]thiophene-2-carboxamido)quinolin-5-yl)methyl-2-amino-3-hydroxypropanoate]
0.67	Cc1c(C(=O)Nc2cc(C(C)(C)O)c3ccccc3n2)sc2c(C(=O)C3CCC3)cccc12 [Example 21, 7-(Cyclobutylcarbonyl)-N-(4-(2-hydroxypropan-2-yl)quinolin-2-yl)-3-methylbenzo[b]thiophene-2-carboxamide]
2.3	CC(=O)c1ccc(C(C)=O)c2c(C)c(C(=O)Nc3cc(CN(C)C(C)=O)c4ccccc4n3)sc12 [Example 15, 4,7-Diacetyl-3-methyl-N-(4-((N-methylacetamido)methyl)quinolin-2-yl)benzo[b]thiophene-2-carboxamide]
0.29	COCc1ccc(C(C)=O)c2sc(C(=O)Nc3cc(CN4CCC(O)C4)c4ccccc4n3)c(C)c12 (stereo not shown) [Example 35, 7-Acetyl-N-(4-((3-hydroxypyrrolidin-1-yl)methyl)quinolin-2-yl)-4-(methoxymethyl)-3-methylbenzo[b]thiophene-2-carboxamide]
0.44	COCc1ccc(C(C)=O)c2sc(C(=O)Nc3cc(CN4CCC(F)CC4)c4ccccc4n3)c(C)c12 [Example 46, 7-Acetyl-N-(4-((4-fluoropiperidin-1-yl)methyl)quinolin-2-yl)-4-(methoxymethyl)-3-methylbenzo[b]thiophene-2-carboxamide]
3	COCc1ccc(C(C)=O)c2sc(C(=O)Nc3ccc4c(C(C)(C)O)cccc4n3)c(C)c12 [Example 74, 7-Acetyl-N-(5-(2-hydroxypropan-2-yl)quinolin-2-yl)-4-(methoxymethyl)-3-methylbenzo[b]thiophene-2-carboxamide]
9.1	COC(C)c1ccc(C(C)=O)c2sc(C(=O)Nc3cc(C(C)(C)O)c4ccccc4n3)c(C)c12 (stereo not shown) [Example 32, 7-Acetyl-N-(4-(2-hydroxypropan-2-yl)quinolin-2-yl)-4-(1-methoxyethyl)-3-methylbenzo[b]thiophene-2-carboxamide]
0.12	COCc1cccc2nc(NC(=O)c3sc4c(C(C)=O)ccc(CO)c4c3C)ccc12 [Example 113, 7-Acetyl-4-(hydroxymethyl)-N-(5-(methoxymethyl)quinolin-2-yl)-3-methylbenzo[b]thiophene-2-carboxamide]
1.1	COCc1ccc(C(C)=O)c2sc(C(=O)Nc3cc(N4CCOCC4)c4ccccc4n3)c(C)c12 [Example 56, 7-Acetyl-4-(methoxymethyl)-3-methyl-N-(4-morpholinoquinolin-2-yl)benzo[b]thiophene-2-carboxamide]
1.2	CC(=O)c1ccc(C(C)=O)c2c(C)c(C(=O)Nc3cc(CN4CC(O)C4)c4ccccc4n3)sc12 [Example 52, 4,7-Diacetyl-N-(4-((3-hydroxyazetidin-1-yl)methyl)quinolin-2-yl)-3-methylbenzo[b]thiophene-2-carboxamide]
0.89	COC1CN(C(=O)c2cccc3nc(NC(=O)c4sc5c(C(C)=O)ccc(CO)c5c4C)ccc23)C1 [Example 115, 7-Acetyl-4-(hydroxymethyl)-N-(5-((3-methoxyazetidin-1-yl)carbonyl)quinolin-2-yl)-3-methylbenzo[b]thiophene-2-carboxamide]
0.9	COCc1ccc(C(C)=O)c2sc(C(=O)Nc3cc(C(C)O)c4ccccc4n3)c(C)c12 (stereo not shown) [Example 33, 7-Acetyl-N-(4-(1-hydroxyethyl)quinolin-2-yl)-4-(methoxymethyl)-3-methylbenzo[b]thiophene-2-carboxamide hydrochloride]
0.89	CC(=O)c1ccc(C(C)=O)c2c(C)c(C(=O)Nc3cc(CO)c4ccccc4n3)sc12 [Example 14, 4,7-Diacetyl-N-(4-(hydroxymethyl)quinolin-2-yl)-3-methylbenzo[b]thiophene-2-carboxamide]
0.5	COCc1ccc(C(C)=O)c2sc(C(=O)Nc3cc(CN4CCCC(O)C4)c4ccccc4n3)c(C)c12 (stereo not shown) [Example 37, 7-Acetyl-N-(4-((3-hydroxypiperidin-1-yl)methyl)quinolin-2-yl)-4-(methoxymethyl)-3-methylbenzo[b]thiophene-2-carboxamide]
0.21	COCc1ccc(C(C)=O)c2sc(C(=O)Nc3ccc4c(C(=O)N5CCC5)cccc4n3)c(C)c12 [Example 98, 7-Acetyl-N-(5-((azetidin-1-yl)carbonyl)quinolin-2-yl)-4-(methoxymethyl)-3-methylbenzo[b]thiophene-2-carboxamide]
0.42	COCc1ccc(C(C)=O)c2sc(C(=O)Nc3ccc4c(C(=O)N5CC(F)(F)C5)cccc4n3)c(C)c12 [Example 100, 7-Acetyl-N-(5-((3,3-difluoroazetidin-1-yl)carbonyl)quinolin-2-yl)-4-(methoxymethyl)-3-methylbenzo[b]thiophene-2-carboxamide]
0.11	COCc1ccc(C(C)=O)c2sc(C(=O)Nc3ccc4c(C(=O)N5CC(F)C5)cccc4n3)c(C)c12 [Example 99, 7-Acetyl-N-(5-((3-fluoroazetidin-1-yl)carbonyl)quinolin-2-yl)-4-(methoxymethyl)-3-methylbenzo[b]thiophene-2-carboxamide]
18	COCc1ccc(C(C)=O)c2sc(C(=O)Nc3cc(Cl)c4ccccc4n3)c(C)c12 [Example 53, 7-Acetyl-N-(4-chloroquinolin-2-yl)-4-(methoxymethyl)-3-methylbenzo[b]thiophene-2-carboxamide]
1.6	COCc1ccc(C(C)=O)c2sc(C(=O)Nc3ccc4c(C)cccc4n3)c(C)c12 [Example 108, 7-Acetyl-4-(methoxymethyl)-3-methyl-N-(5-methylquinolin-2-yl)benzo[b]thiophene-2-carboxamide]
1.2	COCc1ccc(C(C)=O)c2sc(C(=O)Nc3ccc4c(C(=O)NN5CCCC5)cccc4n3)c(C)c12 [Example 94, 2-(7-Acetyl-4-(methoxymethyl)-3-methylbenzo[b]thiophene-2-carboxamido)-N-(pyrrolidin-1-yl)quinoline-5-carboxamide]
4.8	CCC(=O)c1cccc2c(C)c(C(=O)Nc3cc(C(C)(C)O)c4ccccc4n3)sc12 [Example 16, N-(4-(2-Hydroxypropan-2-yl)quinolin-2-yl)-3-methyl-7-propionylbenzo[b]thiophene-2-carboxamide]
4.4	COc1cc(NC(=O)c2sc3c(C(C)=O)ccc(C(C)=O)c3c2C)nc2ccccc12 [Example 12, 4,7-Diacetyl-N-(4-methoxyquinolin-2-yl)-3-methylbenzo[b]thiophene-2-carboxamide]
10	Cc1c(C(=O)Nc2cc(C(C)(C)O)c3ccccc3n2)sc2c(C(=O)CC(C)C)cccc12 [Example 23, N-(4-(2-Hydroxypropan-2-yl)quinolin-2-yl)-3-methyl-7-(3-methylbutanoyl)benzo[b]thiophene-2-carboxamide]
